According to patent publication US9833497B2, “Human originated EGF domain proteins and use of the same” (CHENGDU SOURCEBIO LIMITED-LIABILITY COMPANY, priority 2013, dated 2017):

How the values were obtained:
Format in all cases: cell-based
[1] = system: Aeromonas hydrophila; assay: MIC against Gram-negative bacteria: Aeromonas hydrophila; conditions: for MIC A. hydrophila / MIC (μg/mL) A. hydrophila: 96-well plate, 37° C., 10 h; for MIC A. hydrophila / MIC against A. hydrophila / MIC (μg/mL) A. hydrophila: 5×10^5 CFU/mL; for MIC against A. hydrophila / MIC (μg/mL) A. hydrophila: Aeromonas hydrophila
How it was run: (§1)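 The recombinant human-originated EGF domain proteins were serially diluted two-fold against bacteria at 5×10^5 CFU/mL in LB medium. After shaken incubation at 37° C, the lowest concentration with no bacterial growth was recorded as the MIC.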

[2] = system: Klebsiella pneumonia; assay: MIC against Gram-negative bacteria: Klebsiella pneumonia; conditions: for MIC K. pneumonia / MIC (μg/mL) K. pneumonia: 96-well plate, 37° C., 10 h; for MIC K. pneumonia / MIC against K. pneumonia / MIC (μg/mL) K. pneumonia: 5×10^5 CFU/mL; for MIC against K. pneumonia / MIC (μg/mL) K. pneumonia: Klebsiella pneumonia
How it was run: as §1

[3] = system: Moraxella catarrhalis; assay: MIC against Gram-negative bacteria: Moraxella catarrhalis; conditions: for MIC M. catarrhalis / MIC (μg/mL) M. catarrhalis: 96-well plate, 37° C., 10 h; for MIC M. catarrhalis / MIC against M. catarrhalis / MIC (μg/mL) M. catarrhalis: 5×10^5 CFU/mL; for MIC against M. catarrhalis / MIC (μg/mL) M. catarrhalis: Moraxella catarrhalis
How it was run: as §1

[4] = system: Proteus mirabilis; assay: MIC against Gram-negative bacteria: Proteus mirabilis; conditions: for MIC P. mirabilis / MIC (μg/mL) P. mirabilis: 96-well plate, 37° C., 10 h; for MIC P. mirabilis / MIC against P. mirabilis / MIC (μg/mL) P. mirabilis: 5×10^5 CFU/mL; for MIC against P. mirabilis / MIC (μg/mL) P. mirabilis: Proteus mirabilis
How it was run: as §1

[5] = system: Enterobacter cloacae; assay: MIC against Gram-negative bacteria: Enterobacter cloacae; conditions: for MIC E. cloacae / MIC (μg/mL) E. cloacae: 96-well plate, 37° C., 10 h; for MIC E. cloacae / MIC against E. cloacae / MIC (μg/mL) E. cloacae: 5×10^5 CFU/mL; for MIC against E. cloacae / MIC (μg/mL) E. cloacae: Enterobacter cloacae
How it was run: as §1

[6] = system: E. coli DH5α; assay: Antibacterial activity: MIC and growth curve against E. coli DH5α in 96-well plate; conditions: minimal inhibitory concentration against E. coli DH5α; 96-well plate, 5×10^5 CFU/mL, 37° C., judged after 8 h
How it was run: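 Log-phase DH5α (OD600 about 0.5, 37° C, 185 rpm in LB) was pelleted, resuspended in fresh LB and seeded at 5×10^5 CFU/mL with recombinant protein at 50, 25 and 12.5 μg/mL (two-fold series), in triplicate. Plates were shaken at 175 rpm, 37° C, and OD600 was read every 30 min. MIC was the lowest concentration with no growth.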

[7] = system: Pseudomonas aeruginosa; assay: MIC against Gram-negative bacteria: Pseudomonas aeruginosa; conditions: for MIC P. aeruginosa / MIC (μg/mL) P. aeruginosa: 96-well plate, 37° C., 10 h; for MIC P. aeruginosa / MIC against P. aeruginosa / MIC (μg/mL) P. aeruginosa: 5×10^5 CFU/mL; for MIC against P. aeruginosa / MIC (μg/mL) P. aeruginosa: Pseudomonas aeruginosa
How it was run: as §1

[8] = system: Proteus vulgaris; assay: MIC against Gram-negative bacteria: Proteus vulgaris; conditions: for MIC P. vulgaris / MIC (μg/mL) P. vulgaris: 96-well plate, 37° C., 10 h; for MIC P. vulgaris / MIC against P. vulgaris / MIC (μg/mL) P. vulgaris: 5×10^5 CFU/mL; for MIC against P. vulgaris / MIC (μg/mL) P. vulgaris: Proteus vulgaris
How it was run: as §1

[9] = system: Citrobacter diversus; assay: MIC against Gram-negative bacteria: Citrobacter diversus; conditions: for MIC C. diversus / MIC (μg/mL) C. diversus: 96-well plate, 37° C., 10 h; for MIC C. diversus / MIC against C. diversus / MIC (μg/mL) C. diversus: 5×10^5 CFU/mL; for MIC against C. diversus / MIC (μg/mL) C. diversus: Citrobacter diversus
How it was run: as §1

[10] = system: Serratia marcescens; assay: MIC against Gram-negative bacteria: Serratia marcescens; conditions: for MIC S. marcescens / MIC (μg/mL) S. marcescens: 96-well plate, 37° C., 10 h; for MIC S. marcescens / MIC against S. marcescens / MIC (μg/mL) S. marcescens: 5×10^5 CFU/mL; for MIC against S. marcescens / MIC (μg/mL) S. marcescens: Serratia marcescens
How it was run: as §1

[11] = system: E. coli BL21; assay: MIC against Gram-negative bacteria: E. coli BL21; conditions: for MIC E. coli BL21 / MIC (μg/mL) E. coli BL21: 96-well plate, 37° C., 10 h; for MIC E. coli BL21 / MIC against E. coli BL21 / MIC (μg/mL) E. coli BL21: 5×10^5 CFU/mL
How it was run: as §1

[12] = E. coli BL21, 10 h cultivation at 37° C.

Substance: PRT692 (DVDECATGGRCQHGECANTRGGYTCVCPDGFLLDSSRSSCI; listed as Homo sapiens)
- MIC A. hydrophila [1]: 12.5 µg/mL
- MIC K. pneumonia [2]: 50 µg/mL
- MIC M. catarrhalis [3]: 25 µg/mL
- MIC P. mirabilis [4]: 12.5 µg/mL
- MIC E. cloacae [5]: 25 µg/mL
- MIC [6]: 50 µg/mL
- MIC P. aeruginosa [7]: 12.5 µg/mL
- MIC P. vulgaris [8]: 25 µg/mL
- MIC C. diversus [9]: 50 µg/mL
- MIC S. marcescens [10]: 50 µg/mL
- MIC E. coli BL21 [11]: 25 µg/mL

Substance: PRT1444 (HHIPCPEHYNGFCMHGKCEHSINMQEPSCRCDAGYTGQHCE; listed as Homo sapiens)
- MIC against A. hydrophila ([1]; 10 h cultivation at 37° C.): 25 µg/mL
- MIC against K. pneumonia ([2]; 10 h cultivation at 37° C.): 25 µg/mL
- MIC against M. catarrhalis ([3]; 10 h cultivation at 37° C.): 12.5 µg/mL
- MIC against P. mirabilis ([4]; 10 h cultivation at 37° C.): 25 µg/mL
- MIC against E. cloacae ([5]; 10 h cultivation at 37° C.): 12.5 µg/mL
- MIC [6]: 12.5 µg/mL
- MIC against P. aeruginosa ([7]; 10 h cultivation at 37° C.): 50 µg/mL
- MIC against P. vulgaris ([8]; 10 h cultivation at 37° C.): 50 µg/mL
- MIC against C. diversus ([9]; 10 h cultivation at 37° C.): 50 µg/mL
- MIC against S. marcescens ([10]; 10 h cultivation at 37° C.): 25 µg/mL
- MIC against E. coli BL21 [11, 12]: 25 µg/mL

Substance: PRT1420 (GAWDCSVENGGCEHACNAIPGAPRCQCPAGAALQADGRSCT; listed as Homo sapiens)
- MIC against A. hydrophila ([1]; 10 h cultivation at 37° C.): 25 µg/mL
- MIC against K. pneumonia ([2]; 10 h cultivation at 37° C.): 12.5 µg/mL
- MIC against M. catarrhalis ([3]; 10 h cultivation at 37° C.): 25 µg/mL
- MIC against P. mirabilis ([4]; 10 h cultivation at 37° C.): 12.5 µg/mL
- MIC against E. cloacae ([5]; 10 h cultivation at 37° C.): 12.5 µg/mL
- MIC [6]: 12.5 µg/mL
- MIC against P. aeruginosa ([7]; 10 h cultivation at 37° C.): 12.5 µg/mL
- MIC against P. vulgaris ([8]; 10 h cultivation at 37° C.): 25 µg/mL
- MIC against C. diversus ([9]; 10 h cultivation at 37° C.): 12.5 µg/mL
- MIC against S. marcescens ([10]; 10 h cultivation at 37° C.): 50 µg/mL
- MIC against E. coli BL21 [11, 12]: 12.5 µg/mL

Substance: PRT113 (DLDECASRSKSGEEDPQPQCQHLCHNYVGGYFCSCRPGYELQEDRHSCQ; listed as Homo sapiens)
- MIC (μg/mL) A. hydrophila [1]: 50 µg/mL
- MIC (μg/mL) K. pneumonia [2]: 12.5 µg/mL
- MIC (μg/mL) M. catarrhalis [3]: 50 µg/mL
- MIC (μg/mL) P. mirabilis [4]: 12.5 µg/mL
- MIC (μg/mL) E. cloacae [5]: 25 µg/mL
- MIC [6]: 12.5 µg/mL
- MIC (μg/mL) P. aeruginosa [7]: 25 µg/mL
- MIC (μg/mL) P. vulgaris [8]: 12.5 µg/mL
- MIC (μg/mL) C. diversus [9]: 12.5 µg/mL
- MIC (μg/mL) S. marcescens [10]: 100 µg/mL
- MIC (μg/mL) E. coli BL21 ([11]; E. coli BL21): 50 µg/mL

Substance: PRT1002 (FPDPCQNAQLCQNGGSCQALLPAPLGLPSSPSPLTPSFLCTCLPGFTGERCQ; listed as Homo sapiens)
- MIC ([1]; A. hydrophila, 10 h cultivation at 37° C.): 50 µg/mL
- MIC ([2]; K. pneumonia, 10 h cultivation at 37° C.): 50 µg/mL
- MIC ([3]; M. catarrhalis, 10 h cultivation at 37° C.): 12.5 µg/mL
- MIC ([4]; P. mirabilis, 10 h cultivation at 37° C.): 25 µg/mL
- MIC ([5]; E. cloacae, 10 h cultivation at 37° C.): 12.5 µg/mL
- MIC [6]: 25 µg/mL
- MIC ([7]; P. aeruginosa, 10 h cultivation at 37° C.): 25 µg/mL
- MIC ([8]; P. vulgaris, 10 h cultivation at 37° C.): 50 µg/mL
- MIC ([9]; C. diversus, 10 h cultivation at 37° C.): 25 µg/mL
- MIC ([10]; S. marcescens, 10 h cultivation at 37° C.): 12.5 µg/mL
- MIC [11, 12]: 12.5 µg/mL

Substance: PRT639 (DADECLLFGQEICKNGFCLNTRPGYECYCKQGTYYDPVKLQCF; listed as Homo sapiens)
- MIC A. hydrophila [1]: 50 µg/mL
- MIC K. pneumonia [2]: 50 µg/mL
- MIC M. catarrhalis [3]: 12.5 µg/mL
- MIC P. mirabilis [4]: 25 µg/mL
- MIC E. cloacae [5]: 12.5 µg/mL
- MIC [6]: 12.5 µg/mL
- MIC P. aeruginosa [7]: 12.5 µg/mL
- MIC P. vulgaris [8]: 50 µg/mL
- MIC C. diversus [9]: 25 µg/mL
- MIC S. marcescens [10]: 25 µg/mL
- MIC E. coli BL21 [11]: 50 µg/mL

Substance: PRT1498 (PESPCLQNPCQNDGQCREQGATFTCECEVGYGGGLCM; listed as Homo sapiens)
- MIC (μg/mL) A. hydrophila [1]: 12.5 µg/mL
- MIC (μg/mL) K. pneumonia [2]: 12.5 µg/mL
- MIC (μg/mL) M. catarrhalis [3]: 12.5 µg/mL
- MIC (μg/mL) P. mirabilis [4]: 50 µg/mL
- MIC (μg/mL) E. cloacae [5]: 50 µg/mL
- MIC [6]: 50 µg/mL
- MIC (μg/mL) P. aeruginosa [7]: 12.5 µg/mL
- MIC (μg/mL) P. vulgaris [8]: 12.5 µg/mL
- MIC (μg/mL) C. diversus [9]: 50 µg/mL
- MIC (μg/mL) S. marcescens [10]: 12.5 µg/mL
- MIC (μg/mL) E. coli BL21 ([11]; E. coli BL21): 25 µg/mL
